Assays:
[1] = target: T1, glutathione-S-transferase (GST) tagged LXRbeta LBD (ligand binding domain) (Homo sapiens, UniProt P55055); test: LanthaScreen TR-FRET Liver X Receptor Coactivator Assay, co-activator recruitment to LXRbeta LBD; type: biochemical; settings: for Emax: efficacy at max dose, in relation to reference dual agonist T0901317, read-out: LXR beta Activity @ max dose (%); for EC50: potency (Inflection Point, IP), co-activator recruitment to LXRbeta LBD, in relation to T0901317, read-out: LXR beta IP
T1 construct: purchased Invitrogen pv4658.pps
T1 sequence (P55055 222-460 limits assumed): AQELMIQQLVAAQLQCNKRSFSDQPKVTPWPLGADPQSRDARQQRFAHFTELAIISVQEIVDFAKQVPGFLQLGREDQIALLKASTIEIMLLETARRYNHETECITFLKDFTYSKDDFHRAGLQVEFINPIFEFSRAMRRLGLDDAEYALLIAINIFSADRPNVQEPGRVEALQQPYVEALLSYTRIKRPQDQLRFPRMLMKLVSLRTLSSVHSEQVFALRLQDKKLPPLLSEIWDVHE
Outline: (§1)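 TR-FRET coactivator recruitment; compound + LBD, then fluorescein-coactivator peptide/Tb-anti-GST Ab mix; RT incubation; IP and Emax vs T0901317.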

[2] = target: T2, glutathione-S-transferase (GST) tagged LXRalpha LBD (ligand binding domain) (Homo sapiens, UniProt Q13133); test: LanthaScreen TR-FRET Liver X Receptor Coactivator Assay, co-activator recruitment to LXRalpha LBD; type: biochemical; settings: for Emax: efficacy at max dose, in relation to reference dual agonist T0901317, read-out: LXR alpha Activity @ max dose (%); for EC50: potency (Inflection Point, IP), co-activator recruitment to LXRalpha LBD, in relation to T0901317, read-out: LXR alpha IP
T2 construct: purchased Invitrogen pv4655
T2 sequence (Q13133 209-447 limits assumed): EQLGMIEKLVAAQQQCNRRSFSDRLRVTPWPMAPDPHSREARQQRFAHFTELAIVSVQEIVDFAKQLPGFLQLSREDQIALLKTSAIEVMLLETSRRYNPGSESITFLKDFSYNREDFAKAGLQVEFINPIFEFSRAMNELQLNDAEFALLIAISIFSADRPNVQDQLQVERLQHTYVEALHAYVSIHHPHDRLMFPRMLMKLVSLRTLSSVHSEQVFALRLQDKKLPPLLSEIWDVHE
Outline: as §1

Row | Compound | Emax [1] [%] | EC50 [1] [nM] | Emax [2] [%] | EC50 [2] [nM]
1 | CNC(=O)c1ccc(N2CCC(CC3CCN(C(=O)[C@](O)(c4cccc(OC(F)(F)F)c4)C(F)(F)F)CC3)CC2)nc1Cl [Example 7-139, 2-chloro-N-methyl-6-{4-[(1-{(2R)-3,3,3-trifluoro-2-hydroxy-2-[3-(trifluoromethoxy)phenyl]propanoyl}piperidin-4-yl)methyl]piperidin-1-yl}pyridine-3-carboxamide] | 91 | 26 | 26 | 223
2 | CNC(=O)c1ccc(N2CCC(CC3CCN(C(=O)[C@@](O)(c4ccccc4)C(F)(F)F)CC3)CC2)nc1Cl [Example 7-140, 2-chloro-N-methyl-6-[4-({1-[(2S)-3,3,3-trifluoro-2-hydroxy-2-phenylpropanoyl]piperidin-4-yl}methyl)piperidin-1-yl]pyridine-3-carboxamide] | 122 | 158 | 44 | 1130
3 | CNC(=O)c1ccc(N2CCC(CC3CCN(C(=O)[C@](O)(c4ccccc4)C(F)(F)F)CC3)CC2)nc1Cl [Example 7-141, 2-chloro-N-methyl-6-[4-({1-[(2R)-3,3,3-trifluoro-2-hydroxy-2-phenylpropanoyl]piperidin-4-yl}methyl)piperidin-1-yl]pyridine-3-carboxamide] | 102 | 13 | 47 | 173
4 | CNC(=O)c1ccc(N2CCC(CC3CCN(C(=O)C(O)(c4cccnc4)C(F)(F)F)CC3)CC2)nc1Cl (stereo not shown) [Example 7-142, 2-chloro-N-methyl-6-(4-{[1-(3,3,3-trifluoro-2-hydroxy-2-pyridin-3-ylpropanoyl)piperidin-4-yl]methyl}piperidin-1-yl)pyridine-3-carboxamide] | 133 | 99 | 81 | 2550
5 | CNC(=O)c1ccc(N2CCC(CC3CCN(C(=O)C(O)(C(C)C)C(F)(F)F)CC3)CC2)nc1Cl (stereo not shown) [Example 7-143, 2-chloro-6-[4-({1-[2-hydroxy-3-methyl-2-(trifluoromethyl)butanoyl]piperidin-4-yl}methyl)piperidin-1-yl]-N-methylpyridine-3-carboxamide] | 104 | 327 | 58 | 1310
6 | CNC(=O)c1ccc(N2CCC(CC3CCN(C(=O)C(O)(c4cccc(C#N)c4)C(F)(F)F)CC3)CC2)nc1Cl (stereo not shown) [Example 7-144, 2-chloro-6-[4-({1-[2-(3-cyanophenyl)-3,3,3-trifluoro-2-hydroxypropanoyl]piperidin-4-yl}methyl)piperidin-1-yl]-N-methylpyridine-3-carboxamide] | 107 | 20 | 61 | 215
7 | CNC(=O)c1ccc(N2CCC(CC3CCN(C(=O)[C@](O)(c4ccccc4F)C(F)(F)F)CC3)CC2)nc1Cl [Example 7-145, 2-chloro-N-methyl-6-[4-({1-[(2R)-3,3,3-trifluoro-2-(2-fluorophenyl)-2-hydroxypropanoyl]piperidin-4-yl}methyl)piperidin-1-yl]pyridine-3-carboxamide] | 115 | 23 | 47 | 791
8 | CNC(=O)c1ccc(N2CCC(CC3CCN(C(=O)[C@](O)(c4cccc(Br)c4)C(F)(F)F)CC3)CC2)nc1Cl [Example 7-146, 6-[4-({1-[(2R)-2-(3-bromophenyl)-3,3,3-trifluoro-2-hydroxypropanoyl]piperidin-4-yl}methyl)piperidin-1-yl]-2-chloro-N-methylpyridine-3-carboxamide] | 113 | 9 | 51 | 127
9 | CNC(=O)c1ccc(N2CCC(CC3CCN(C(=O)[C@](O)(c4cccc(Cl)c4)C(F)(F)F)CC3)CC2)nc1Cl [Example 7-147, 2-chloro-6-[4-({1-[(2R)-2-(3-chlorophenyl)-3,3,3-trifluoro-2-hydroxypropanoyl]piperidin-4-yl}methyl)piperidin-1-yl]-N-methylpyridine-3-carboxamide] | 100 | 4 | 63 | 51
10 | CCc1cccc([C@@](O)(C(=O)N2CCC(CC3CCN(c4ccc(C(=O)NC)c(Cl)n4)CC3)CC2)C(F)(F)F)c1 [Example 7-148, 2-chloro-6-[4-({1-[(2R)-2-(3-ethylphenyl)-3,3,3-trifluoro-2-hydroxypropanoyl]piperidin-4-yl}methyl)piperidin-1-yl]-N-methylpyridine-3-carboxamide] | 65 | 12 | 24 | 120
11 | CNC(=O)c1ccc(N2CCC(CC3CCN(C(=O)[C@](O)(c4cccc(C(C)C)c4)C(F)(F)F)CC3)CC2)nc1Cl [Example 7-149, 2-chloro-N-methyl-6-{4-[(1-{(2R)-3,3,3-trifluoro-2-hydroxy-2-[3-(1-methylethyl)phenyl]propanoyl}piperidin-4-yl)methyl]piperidin-1-yl}pyridine-3-carboxamide] | 91 | 17 | 32 | 163
12 | CNC(=O)c1ccc(N2CCC(CC3CCN(C(=O)[C@](O)(c4cccc(C(F)(F)F)c4)C(F)(F)F)CC3)CC2)nc1Cl [Example 7-150, 2-chloro-N-methyl-6-{4-[(1-{(2R)-3,3,3-trifluoro-2-hydroxy-2-[3-(trifluoromethyl)phenyl]propanoyl}piperidin-4-yl)methyl]piperidin-1-yl}pyridine-3-carboxamide] | 84 | 24 | 42 | 256
13 | CNC(=O)c1ccc(N2CCC(CC3CCN(C(=O)[C@](O)(c4cccc(C)c4)C(F)(F)F)CC3)CC2)nc1Cl [Example 7-151, 2-chloro-N-methyl-6-[4-({1-[(2R)-3,3,3-trifluoro-2-hydroxy-2-(3-methylphenyl)propanoyl]piperidin-4-yl}methyl)piperidin-1-yl]pyridine-3-carboxamide] | 81 | 7 | 34 | 121
14 | CNC(=O)c1ccc(N2CCC(CC3CCN(C(=O)[C@](O)(c4cccc(F)c4)C(F)(F)F)CC3)CC2)nc1Cl [Example 7-152, 2-chloro-N-methyl-6-[4-({1-[(2R)-3,3,3-trifluoro-2-(3-fluorophenyl)-2-hydroxypropanoyl]piperidin-4-yl}methyl)piperidin-1-yl]pyridine-3-carboxamide] | 127 | 6 | 58 | 69
15 | COc1cccc([C@@](O)(C(=O)N2CCC(OC3CCN(c4ccc(C(=O)N(C)C)c(Cl)n4)CC3)CC2)C(F)(F)F)c1 [Example 7-153, 2-chloro-N,N-dimethyl-6-[4-({1-[(2R)-3,3,3-trifluoro-2-hydroxy-2-(3-methoxyphenyl)propanoyl]piperidin-4-yl}oxy)piperidin-1-yl]pyridine-3-carboxamide] | 100 | 25 | 29 | 890
16 | COc1cccc([C@@](O)(C(=O)N2CCC(OC3CCN(c4ccc(C(=O)N(C)C)c(OC)n4)CC3)CC2)C(F)(F)F)c1 [Example 7-154, 2-methoxy-N,N-dimethyl-6-[4-({1-[(2R)-3,3,3-trifluoro-2-hydroxy-2-(3-methoxyphenyl)propanoyl]piperidin-4-yl}oxy)piperidin-1-yl]pyridine-3-carboxamide] | 93 | 47 | 34 | 2940

Source: US10752587B2, “Homobispiperidinyl derivatives as liver X receptor beta agonists, compositions and their use” (Merck Sharp & Dohme Corp., priority 2015, dated 2020)
